US20250154154A1 (Relay Binney Street, 2nd Floor, priority 2020, published 2025)

Experiments:
[1] = test system: phospho-S6RP (Ser 235/236) in RBE cells; experiment: Cellular Proliferation Protocol (cellular phospho-S6RP HTRF), RBE cells; assay type: cell-based; settings: 6 hours treatment, RBE or SNU-1079 cells, cell line not given
How it was run: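 RBE cells, 2000/well, seeded 24 h before 6 h compound treatment at 37° C. Lysates were probed with a Eu-cryptate/d2 HTRF antibody sandwich for phospho-S6RP (Ser 235/236), incubated overnight at room temperature. Signal normalised to DMSO control and IC50 fitted to a 4-parameter curve.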

RBE cells = experiment: Cell Viability Protocol (CellTiterGlo), RBE cells; assay type: cell-based; settings: RBE or SNU-1079 cells, 72 or 120 hour, cell line and time not given
How it was run: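 RBE cells plated at 1200/well in RPMI 1640 with 10% FBS, incubated 24 h, then dosed with compound from DMSO stocks and incubated 72 or 120 h at 37° C. CellTiterGlo luminescence normalised to DMSO control; IC50 from 4-parameter fit.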

SRC = SRC (Homo sapiens, UniProt P12931); experiment: SRC Biochemical Assay Protocol (microfluidic mobility shift assay, FLPeptide4 substrate)
Sequence of SRC (P12931 whole entry, species assumed): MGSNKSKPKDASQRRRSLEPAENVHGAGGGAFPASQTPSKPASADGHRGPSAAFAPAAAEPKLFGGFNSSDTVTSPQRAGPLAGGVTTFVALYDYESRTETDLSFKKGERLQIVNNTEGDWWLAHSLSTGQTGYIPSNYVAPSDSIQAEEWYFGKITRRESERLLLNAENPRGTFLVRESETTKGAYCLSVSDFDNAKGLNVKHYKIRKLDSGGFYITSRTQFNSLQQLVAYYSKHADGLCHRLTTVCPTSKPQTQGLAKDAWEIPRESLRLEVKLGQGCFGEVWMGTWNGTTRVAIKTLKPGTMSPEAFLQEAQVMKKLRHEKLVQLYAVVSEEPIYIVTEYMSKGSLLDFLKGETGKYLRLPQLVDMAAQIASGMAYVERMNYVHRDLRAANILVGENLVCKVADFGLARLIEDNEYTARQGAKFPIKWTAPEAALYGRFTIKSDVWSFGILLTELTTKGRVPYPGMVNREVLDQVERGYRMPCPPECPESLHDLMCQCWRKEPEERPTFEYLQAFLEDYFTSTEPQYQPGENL
How it was run: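 Recombinant SRC (0.26 nM) preincubated 30 min at RT with compound (0.0017–100 μM) and 1.5 μM FLPeptide4, then 50 μM ATP added; 90 min reaction in HEPES pH 7.4, 10 mM MgCl2, 1% DMSO, EDTA-quenched. Phosphopeptide quantified by microfluidic mobility shift; IC50 from 4-parameter logistic fit.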

Row | SMILES | IC50 (SRC) [nM] | IC50 ([1]; 6 h) [nM] | IC50 (RBE cells) [nM] | IC50 [1] [nM]
1 | C=CC(=O)N[C@H](C)C(=O)N1CCC(C#Cc2c(-c3ccc(Oc4ccccc4)cc3)c3c(N)ncnc3n2[C@H]2CCOC2)CC1 [II-185, N-((R)-1-(4-((4-amino-5-(4-phenoxyphenyl)-7-((S)-tetrahydrofuran-3-yl)-7H-pyrrolo[2,3-d]pyrimidin-6-yl)ethynyl)piperidin-1-yl)-1-oxopropan-2-yl)acrylamide] | 10 to 1000 | 1000 to 10000 | 1000 to 10000 | –
2 | Cn1c(C#CC2CN(C(=O)/C=C/CN3CC(F)C3)C2)c(-c2ccc(Oc3ccccc3)cc2)c2c(N)ncnc21 [II-172, (E)-1-(3-((4-amino-7-methyl-5-(4-phenoxyphenyl)-7H-pyrrolo [2,3-d]pyrimidin-6-yl)ethynyl)azetidin-1-yl)-4-(3-fluoroazetidin-1-yl)but-2-en-1-one] | 10 to 1000 | 10 to 1000 | 10 to 1000 | –
3 | CC(C)n1c(C#CC2CCN(C3CN(C(=O)/C=C/CN(C)C)C3)CC2)c(-c2ccc(Oc3ccccc3)cc2)c2c(N)ncnc21 [Example I-54] | ≤ 10 | ≤ 10 | 10 to 1000 | –
4 | C=CC(=O)N1CCC(C#Cc2c(-c3ccc(Oc4ccccc4)cc3)c3c(N)ncnc3n2C2CCN(C)C2=O)CC1 (stereo not drawn) [Example I-56] | 10 to 1000 | 10 to 1000 | 10 to 1000 | –
5 | C=CC(=O)N1C[C@@H]2[C@@H](C#Cc3c(-c4ccc(Oc5cccc(C)n5)cc4OC)c4c(N)ncnc4n3CCOC)[C@@H]2C1 [II-276] | 10 to 1000 | 10 to 1000 | 10 to 1000 | –
6 | C=CC(=O)NCC(=O)N1C[C@@H]2[C@@H](C#Cc3c(-c4ccc(Oc5cccc(C)n5)cc4)c4c(N)ncnc4n3C)[C@@H]2C1 [II-212, N-[2-[(1R,5S,6S)-6-[2-(4-amino-7-methyl-5-[4-[(6-methylpyridin-2-yl)oxy]phenyl]-7H-pyrrolo[2,3-d]pyrimidin-6-yl)ethynyl]-3-azabicyclo[3.1.0]hexan-3-yl]-2-oxoethyl]prop-2-enamide] | ≤ 10 | ≤ 10 | ≤ 10 | –
7 | C=CC(=O)N1CCC(N2CC(C#Cc3c(-c4ccc(Oc5cccc(C)n5)cc4)c4c(N)ncnc4n3C)C2)C(O)C1 (stereo not drawn) [II-215, 1-(4-(3-((4-amino-7-methyl-5-(4-(6-methylpyridin-2-yloxy)phenyl)-7H-pyrrolo[2,3-d]pyrimidin-6-yl)ethynyl)azetidin-1-yl)-3-hydroxypiperidin-1-yl)prop-2-en-1-one] | 10 to 1000 | 10 to 1000 | 10 to 1000 | –
8 | C=CC(=O)N1CC[C@@H](N2CC(F)(C#Cc3c(-c4ccc(Oc5ccccc5)cc4)c4c(N)ncnc4n3C)C2)C[C@H]1CO [II-205, 1-((2S,4R)-4-(3-((4-amino-7-methyl-5-(4-phenoxyphenyl)-7H-pyrrolo[2,3-d]pyrimidin-6-yl)ethynyl)-3-fluoroazetidin-1-yl)-2-(hydroxymethyl)piperidin-1-yl)prop-2-en-1-one] | 10 to 1000 | 10 to 1000 | 10 to 1000 | –
9 | C/C=C/C(=O)N1CC(N2CCC(C#Cc3c(-c4ccc(Oc5ccccc5)cc4)c4c(N)ncnc4n3C(C)C)CC2)C1 [Example I-51] | 10 to 1000 | ≤ 10 | 10 to 1000 | –
10 | C=CC(=O)N1CC[C@H](N2CC(C#Cc3c(-c4ccc(Oc5ccccc5)cc4)c4c(N)ncnc4n3C)C2)[C@H](O)C1 [II-164, 1-((3R,4S)-4-(3-((4-amino-7-methyl-5-(4-phenoxyphenyl)-7H-pyrrolo[2,3-d]pyrimidin-6-yl)ethynyl)azetidin-1-yl)-3-hydroxypiperidin-1-yl)prop-2-en-1-one] | 10 to 1000 | ≤ 10 | ≤ 10 | –
11 | C=CC(=O)N1CCC(N2CC(C#Cc3c(-c4ccc(Oc5ccccc5)c(OC)c4)c4c(N)ncnc4n3C)C2)C[C@H]1CO (stereo partly drawn) [II-248, 1-((2S)-4-(3-((4-amino-5-(3-methoxy-4-phenoxyphenyl)-7-methyl-7H-pyrrolo[2,3-d]pyrimidin-6-yl)ethynyl)azetidin-1-yl)-2-(hydroxymethyl)piperidin-1-yl)prop-2-en-1-one] | ≤ 10 | 10 to 1000 | 10 to 1000 | –
12 | CCN(CC)C/C=C/C(=O)N1C[C@@H]2[C@@H](C#Cc3c(-c4ccc(Oc5ccccc5)cc4)c4c(N)ncnc4n3C)[C@@H]2C1 [II-223, (E)-1-((1R,5S,6s)-6-((4-amino-7-methyl-5-(4-phenoxyphenyl)-7H-pyrrolo[2,3-d]pyrimidin-6-yl)ethynyl)-3-azabicyclo[3.1.0]hexan-3-yl)-4-(diethylamino)but-2-en-1-one] | 10 to 1000 | 10 to 1000 | 10 to 1000 | –
13 | C=CC(=O)N1CC[C@H](N2CC(C#Cc3c(-c4ccc(Oc5ccccc5)cc4)c4c(N)ncnc4n3C)C2)[C@@H](O)C1 [II-221, 1-((3S,4S)-4-(3-((4-amino-7-methyl-5-(4-phenoxyphenyl)-7H-pyrrolo[2,3-d]pyrimidin-6-yl)ethynyl)azetidin-1-yl)-3-hydroxypiperidin-1-yl)prop-2-en-1-one] | ≤ 10 | ≤ 10 | ≤ 10 | –

The next lines start with results.

Row | IC50 (SRC) [nM] | SMILES | IC50 ([1]; 6 h) [nM] | IC50 (RBE cells) [nM] | IC50 [1] [nM]
14 | 10 to 1000 | C=CC(=O)N1CCC(C#Cc2c(-c3ccc(Oc4ccccc4)cc3)c3c(N)ncnc3n2CCN2CCN(C)CC2)CC1 [Example I-52] | 10 to 1000 | 10 to 1000 | –
15 | 10 to 1000 | C=CC(=O)N1CC[C@@H](N2CC(C#Cc3c(-c4ccc(C5CC5)c(OC)c4)c4c(N)ncnc4n3C)C2)[C@@H](O)C1 [II-67] | – | 10 to 1000 | 10 to 1000
16 | 10 to 1000 | C=CC(=O)N1CCC(N2CC(C#Cc3c(-c4ccc(OC(C)C)c(OC)c4)c4c(N)ncnc4n3C)C2)CC1 [II-101] | – | 10 to 1000 | 10 to 1000
17 | 10 to 1000 | C=CC(=O)N1CC[C@@H](N2CC(C#Cc3c(-c4cc(OC)c(Cl)c(OC)c4)c4c(N)ncnc4n3C)C2)[C@@H](O)C1 [II-60] | – | 10 to 1000 | 10 to 1000
18 | 10 to 1000 | C=CC(=O)N1CCC(N2CC(C#Cc3c(-c4ccc(Oc5ccccc5)c(OC)n4)c4c(N)ncnc4n3C)C2)CC1 [II-315] | – | ≤ 10 | 10 to 1000
19 | ≤ 10 | C=CC(=O)N1CCC(N2CC(C#Cc3c(-c4ccc(Cl)c(C)c4)c4c(N)ncnc4n3C(C)C)C2)CC1 [II-114] | – | 10 to 1000 | 10 to 1000
20 | 10 to 1000 | C=CC(=O)N1CC[C@@H](N2CC(C#Cc3c(-c4ccc(Cl)c(OC)c4)c4c(N)ncnc4n3CCOC)C2)[C@@H](O)C1 [II-56] | – | 10 to 1000 | 10 to 1000
21 | ≤ 10 | C=CC(=O)N1CCC(N2CC(C#Cc3c(-c4ccc(F)c5c4OCO5)c4c(N)ncnc4n3CC)C2)CC1 [II-290] | 10 to 1000 | 10 to 1000 | –
22 | ≤ 10 | C=CC(=O)N1CCC(N2CC(C#Cc3c(-c4cccc5c4OCO5)c4c(N)ncnc4n3CC)C2)CC1 [II-119] | – | 10 to 1000 | 10 to 1000
23 | 10 to 1000 | C=CC(=O)N1CCC(N2CC(C#Cc3c(-c4ccc(OC(F)(F)F)cc4)c4c(N)ncnc4n3C)C2)CC1 [II-103] | – | 10 to 1000 | 10 to 1000
24 | 10 to 1000 | C=CC(=O)N1CCC(C#Cc2c(-c3ccc(Oc4ccccc4)cc3)c3c(N)ncnc3n2C2CCOC2)CC1 (stereo not drawn) [Example I-32] | ≤ 10 | 10 to 1000 | –
